Reference: patent publication US11549123B2, “Plant EPSP synthases and methods of use” (PIONEER HI-BRED INTERNATIONAL, INC., priority 2015, dated 2023)
Substitutions are numbered along the chain they refer to.

How the values were obtained:
Assay type in all cases: biochemical
[1] = target: T1, Zea mays EPSPS variant G-W at positions 103-107 (EPSPS-TGPW; T103G P107W) (Zea mays, UniProt O24566, P106W/T102G); assay: EPSPS substrate saturation kinetics, maize variant 103G 107W (EPSPS-TGPW)
T1 sequence (O24566 with tags, fused parts or gaps T102G/P106W): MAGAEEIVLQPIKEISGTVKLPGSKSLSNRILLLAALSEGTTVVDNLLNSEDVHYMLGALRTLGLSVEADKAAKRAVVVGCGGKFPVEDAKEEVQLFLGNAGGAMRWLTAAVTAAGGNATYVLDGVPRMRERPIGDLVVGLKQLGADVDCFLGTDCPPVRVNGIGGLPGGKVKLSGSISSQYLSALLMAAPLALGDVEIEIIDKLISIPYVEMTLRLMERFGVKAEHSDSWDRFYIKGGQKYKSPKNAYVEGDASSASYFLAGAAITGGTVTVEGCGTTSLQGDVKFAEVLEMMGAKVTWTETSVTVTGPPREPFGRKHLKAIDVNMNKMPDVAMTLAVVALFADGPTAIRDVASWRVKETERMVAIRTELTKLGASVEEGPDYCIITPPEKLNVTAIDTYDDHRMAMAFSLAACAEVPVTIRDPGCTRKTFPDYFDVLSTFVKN
Description: EPSPS activity was determined by quantifying the phosphate generated from the EPSPS reaction. Release of inorganic phosphate was coupled to reaction with 2-amino-6-mercapto-7-methylpurine ribonucleoside, catalyzed by purine-nucleoside phosphorylase (M R Webb, Proc. Natl. Acad. Sci. 89:4884-4887, 1992). The absorbance change that occurs was monitored at 360 nm, where the extinction is 11,200 M^−1 cm^−1, with a Spectramax plate reader (Molecular Devices). To determine kinetic parameters, the varied substrate was present at seven concentrations (the eighth being the blank, containing no substrate) ranging from 4 to 400 uM and the unvaried substrate present at saturation. Six microliters of 50-fold concentrated stock solutions of the varied substrate were placed in the wells of the 96-well assay plate and reactions were started with the addition of a mixture containing 25 mM Hepes, pH 7, 100 mM KCl, 0.3 mM 2-amino-6-mercapto-7-methylpurine ribonucleosde, 1 uM (1 unit/ml) purine-nucleoside phosphorylase (Sigma N8264) and 200 uM of the non-varied substrate. Reactions were monitored with a Spectramax plate reader. The Michaelis-Menten kinetics protocol of the Spectramax software was customized for the substrate concentrations used. The software returns values of KM and Vmax using the Lineweaver-Burke transformation of the Michaelis-Menten equation. To determine kcat, Vmax (uM/min) was divided by the enzyme concentration (uM). […] KI was then calculated from the following form of the Michaelis-Menten equation for competitive inhibition: KI=KM[I]/(KM app−KM) KM approximates the dissociation constant of the enzyme-substrate complex while kcat is the rate of conversion of substrate to product when the substrate concentration is saturating. kcat/KM is a widely accepted parameter for catalytic efficiency when substrate concentration is low (˜KM). […] The parameter kcat/KM×KI is used to quantify both catalytic efficiency and insensitivity and thus the overall fitness of the enzyme.
NNK-enabled saturation mutagenesis was performed at positions 103 and 107 in the maize EPSPS sequence, and transformed BL21 DE3 cells were screened as described above.

[2] = target: Zea mays EPSPS variant 202R (Zea mays, UniProt O24566, I201R); assay: EPSPS reaction rate with or without 10 uM glyphosate, 202R; conditions: pH 7; read-out: Reaction rate with 10 μM glyph, % no glyph; further: 50 µM PEP and S3P
[3] = target: T2, Zea mays EPSPS variant Zm-T103A (Zea mays, UniProt O24566, T102A); assay: Rapid two-rate method for (kcat/KM)*KI, Zm-T103A; conditions: [E] 0.07 uM, [Gly] 1000 uM
T2 construct: native maize plus T103A; E. coli BL21(DE3), Ni-NTA purified
T2 sequence (O24566 with tags, fused parts or gaps T102A): T1 sequence (O24566 with tags, fused parts or gaps T102G/P106W) with G103A, W107P
Text: There are several practical considerations for accurately estimating (kcat/KM)*KI with the rapid method. […] 2) The inhibitor concentration must be adjusted so as to obtain a degree of inhibition that minimally amplifies the error in the term v0-vi in Equation 3. If inhibition is too little, v0-vi will be small, and the error in the multiplier vi×v0/(v0-vi) will be large. […] 3) Substrate concentration should be set at the approximate KM of the parental variant(s), subject to the sensitivity of the assay. High substrate concentration obscures sensitivity to the inhibitor and reduces stringency for capturing improvements in KM. Depending on the necessity for speed, there exists opportunity for customizing enzyme and inhibitor concentrations. […] The rapid method was repeated for those and obtained data that correlated better with data obtained by substrate saturation analysis. For screening purposes however, that correlation step is not necessary. Conditions can be set so that variants with a pre-determined minimal fitness level are accurately quantified.
In Table 15, parameters above the heavy line for the rapid method were obtained under standard conditions. For variants shown below the heavy line, the rapid analysis was repeated with enzyme or glyphosate concentrations adjusted as needed to generate sufficient signal within the limits for linear initial rates.

[4] = target: T3, Zea mays EPSPS variant Zm-P107S (Zea mays, UniProt O24566, P106S); assay: Substrate saturation kinetic analysis with glyphosate, Zm-P107S
T3 construct: native maize plus P107S; E. coli BL21(DE3), Ni-NTA purified
T3 sequence (O24566 with tags, fused parts or gaps P106S): T1 sequence (O24566 with tags, fused parts or gaps T102G/P106W) with G103T, W107S

Sequence of Zea mays EPSPS variant 202R (O24566 entry or part of it I201R): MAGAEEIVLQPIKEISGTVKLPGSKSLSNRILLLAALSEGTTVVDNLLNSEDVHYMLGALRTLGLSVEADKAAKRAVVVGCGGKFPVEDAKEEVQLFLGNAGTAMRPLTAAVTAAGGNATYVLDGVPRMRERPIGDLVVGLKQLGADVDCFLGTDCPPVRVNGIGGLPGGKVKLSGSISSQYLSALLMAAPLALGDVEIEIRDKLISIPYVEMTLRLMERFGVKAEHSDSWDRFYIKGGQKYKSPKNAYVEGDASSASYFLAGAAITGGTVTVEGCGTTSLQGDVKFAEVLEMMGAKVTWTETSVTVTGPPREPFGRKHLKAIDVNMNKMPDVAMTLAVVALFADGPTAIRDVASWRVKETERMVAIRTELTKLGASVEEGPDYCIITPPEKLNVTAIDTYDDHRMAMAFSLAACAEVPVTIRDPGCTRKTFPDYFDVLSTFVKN

| Structure (SMILES) | kcat ([1]; PEP varied) | Ki [1] [µM] | (kcat/KM)*KI ([1]; PEP as substrate, glyphosate as inhibitor) | activity at 10 µM [2] [%] | (kcat/KM)*KI [3] | Ki [4] [µM] | (kcat/KM)*KI ([4]; substrate saturation, Zm-P107S) |
| --- | --- | --- | --- | --- | --- | --- | --- |
| C=C(OP(=O)(O)O)C(=O)O [PEP, phosphoenolpyruvate] | 379 |  |  |  |  |  |  |
| O=C(O)CNCP(=O)(O)O [glyphosate, N-phosphonomethylglycine] |  | 403 | 1862 | 7.48 | 543 | 0.42 | 51 |
